From patent US20100004443A1, “LINEAR PYRIDAZINE AND PYRROLE COMPOUNDS, METHOD FOR OBTAINING THEM AND APPLICATIONS” (CENTRE NATIONAL DE LA RECHERCHE SCIENTIFIQUE (C.N., priority 2006, published 2010)
pIC50: −log10 of the molar value. In brackets after ≈: the same amount, converted by molar mass. Several values for one entry are separate records, joined by “and”; a condition that tells them apart may be missing. Equal values may be shown once.

Tests used:
[1] = tested on: Candida albicans; assay: Parasitology, Candida albicans; assay type: cell-based; conditions: read-out: Parasitology IC50 or 80 Candida albicans
[2] = tested on: KB cells; assay: Cytotoxicity on KB cells; assay type: cell-based
[3] = tested on: Leishmania mexicana; assay: Parasitology, Leishmania mexicana; assay type: cell-based; conditions: read-out: Parasitology IC50 or 80 Leishmania mexicana
[4] = tested on: KB, Caco, Huh7 and fibroblast cells; assay: in vitro cytotoxicity test on KB, Caco, Huh7 and fibroblast cells; assay type: cell-based
Description: Preferably, the cancer concerned by the invention is a carcinoma, for instance a carcinoma of the ear, nose or throat, of the lungs, of the uterus, of the digestive system (oesophagus, colon, liver), of the skin, of the breasts, of the prostate, of the ovaries, etc.

[5] = Cytotoxicity on KB cells; assay type: cell-based; conditions: human, KB cells
[6] = tested on: E. coli; assay: Inhibition of the growth of E. coli; assay type: cell-based
[7] = target: tonB protein (Escherichia coli, UniProt P02929); assay: Effect on tonB protein (iron transfer for bacterial growth)
[8] = second value (cell beside the first)

Chain of tonB protein (P02929 whole entry): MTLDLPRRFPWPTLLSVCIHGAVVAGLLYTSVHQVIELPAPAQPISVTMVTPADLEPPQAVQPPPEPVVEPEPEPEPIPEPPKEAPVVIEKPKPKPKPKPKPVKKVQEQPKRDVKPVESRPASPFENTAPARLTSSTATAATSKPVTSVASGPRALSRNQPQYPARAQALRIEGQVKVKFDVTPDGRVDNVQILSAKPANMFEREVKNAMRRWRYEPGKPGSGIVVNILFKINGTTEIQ

Structure (SMILES)	IC50 [1]	KB cells Cytotoxicity % inhibition à [10^−5] ([2]; first value) [%]	KB cells Cytotoxicity % inhibition à [10^−5] [2, 8] [%]	IC50 [3]	cytotoxic activity in a cancerous cell model [4]	IC50 [5]	IC50 ([2]; Homo sapiens, KB, read-out: IC50 on KB cancerous cells) [µg/mL]	inhibition of the growth of E. coli [6]	effect on the tonB protein [7]	pIC50 [1]
Cc1cccc(-c2ccc(-c3ccc(-c4cccc(C)n4)nn3)nn2)n1 [Compound 2, 6,6′-bis(6-methylpyridin-2-yl)-3,3′-bipyridazine]	62 µM and 25.9 µg/mL	23	12	2.2 µM and 0.91 µg/mL						
S=c1ccc(-c2ccccn2)n[nH]1 [Compound 10, 6-(pyridin-2-yl)-2H-pyridazin-3-thione]		84	74		very high levels of cytotoxic activity					
c1ccc(-c2ccc(-c3ccc(-c4ccccn4)nn3)nn2)nc1 [Compound 19, 6,6′-bis(pyridin-2-yl)-3,3′-bipyridazine]		16								
C=C(OCC)c1ccc(-c2ccc(C(=C)OCC)nn2)nn1 [Compound 24, 6,6′-di-(1-ethoxyvinyl)-3,3′-bipyridazine]		96	95		very high levels of cytotoxic activity	1.23 µM and 0.37 µg/mL	0.3 (≈ 1.01 µM)	able to inhibit the growth of E. coli	affects the tonB protein	
Cc1cccc(-c2ccc(-c3ccccn3)nn2)n1 [Compound 44, 3-(6-methylpyridin-2-yl)-6-(pyridin-2-yl)pyridazine]	600 nM and 0.15 µg/mL	11	21	< 1 µM and < 0.25 µg/mL	very high levels of cytotoxic activity					
O=C(O)c1cccc(-c2ccc(-c3ccccn3)nn2)n1 [Compound 45, 3-(2-carboxypyridin-6-yl)-6-(pyridin-2-yl)-pyridazine]		9	3	14 µM and 3.9 µg/mL						< 4.00
O=C(O)c1cccc(-c2ccc(-c3cccc(C(=O)O)n3)nn2)n1 [Compound 48, 3,6-bis(2-carboxypyridin-6-yl)-pyridazine]	> 100 µM and ≥ 32.2 µg/mL	21		3 µM and 0.96 µg/mL						
CCCCc1cc(-c2ccccn2)[nH]c1-c1ccccn1 [Compound 68]		43								
c1ccc(-c2ccc(-c3ccccn3)nn2)nc1 [Compound 80, 3,6-bispyridin-2-ylpyridazine]					very high levels of cytotoxic activity					
